{"source": "patent US20220339135A1", "about": "“COMPOSITIONS AND METHODS FOR MODULATING AN INFLAMMATORY RESPONSE” (Enzychem Lifesciences Corporation, priority 2019, published 2022)", "assay_type_in_all_cases": "in vivo", "key": {"[1]": {"system": "Pseudomonas aeruginosa strain K (PAK) in BALF", "experiment": "PAK clearance in AC regimen-induced immunocompromised mice", "details": "PLAG 250 mg/kg oral once daily 5 days, BALF 3 and 6 hours after infection", "protocol": "To establish a chemotherapy-induced immunocompromised mice model, the mice were administered a single intravenous injection of 50 mg/kg cyclophosphamide and 2.5 mg/kg doxorubicin (AC regimen). After 5 days from the injection of AC regimen, blood samples were collected from an intra-orbital vein using EDTA capillary tubes, and the number of circulating neutrophils was measured by complete blood cell count (CBC) analysis using Mindray BC-5300 auto-hematology analyzer (Shenzhen Mindray Bio-medical Electronics, China). Pseudomonas aeruginosa strain K (PAK) was grown overnight in LB broth at 37° C. with agitation and then harvested by centrifugation at 13,000×g for 2 minutes. […] The diluted bacteria were administrated to the mice by intranasal injection. Bronchoalveolar lavage fluid (BALF) samples were collected from the PAK-infected mice at different time points after infection in normal mice model and in AC regimen-induced immunocompromised mice model. […] The number of viable bacteria in BALF was determined by counting the number of colonies formed in the plates. […] The BALF samples were harvested at 3 and 6 hours after the infection, and live PAK in BALF after AC regimen and AC regimen/PLAG treatment was determined by counting with colony-forming units (FIG. 6B)."}, "skin erythema injury": {"system": "skin erythema injury", "experiment": "Radiation-induced skin erythema in mice", "details": "8Gy TBI, PLAG 250 mg/kg daily 17 days", "protocol": "9 weeks Balb/c mice were divided into two groups: 1) radiated group (8Gy of TBI by γ-ray) and 2) PLAG (250 mg/kg of PLAG daily for 17 days) administrated group with radiation (8Gy of TBI) (FIG. 38A)."}, "[2]": {"system": "gemcitabine-induced neutrophil extravasation", "experiment": "Gemcitabine-induced neutropenia mice model", "protocol": "Male BALB/c mice were randomly divided into 3 groups; normal control group (n=5), gemcitabine only group (n=5) and gemcitabine with PLAG group (n=5). The mice were intraperitoneally (i.p.) injected with 50 mg/kg gemcitabine to induce neutropenia. PLAG was diluted with phosphate-buffered saline (PBS) and then orally administrated at a dose of 50 or 250 mg/kg/day. The normal control group was administered PBS only during the experiment. The whole blood was collected from the orbital sinuses using capillary tubes (Kimble Chase Life Science and Research Products LLC, FL, USA) and collection tubes containing K3E-K3EDTA (Greiner Bio-One International, Germany). To obtain peritoneal cells, 5 ml of cold PBS was injected to the left side of the peritoneal wall using a 5 mL syringe, and the fluid was aspirated from the peritoneum. The collected cells were counted by complete blood count (CBC) analysis using Mindray BC-5300 auto-hematology analyzer (Shenzhen Mindray Biomedical Electronics, China). To establish a 4T1 tumor-bearing mice model, the murine 4T1 mammary carcinoma cells (1×10^5) were subcutaneously injected on the right side of the abdomen. On the 10th day after tumor injection, the mice were intraperitoneally (i.p.) injected with 50 mg/kg gemcitabine, and the next day the whole blood was collected from the orbital sinuses as mentioned above before sacrificing the animals to obtain different organs of the body for RT-PCR.\nPLAG inhibits gemcitabine-induced neutrophil extravasation into the peritoneum by down-regulating the expression of adhesion molecules in normal BALB/c mice. Male BALB/c mice of 8-10 weeks of age were orally administrated with 50 or 250 mg/kg of PLAG and then were intraperitoneally injected with 50 mg/kg gemcitabine. After 24 h, blood samples were collected by retro-orbital bleeding, and the number of blood neutrophils was determined by CBC analysis. Each group contains five mice. The population of blood neutrophils was analyzed by flow cytometry. Red cell-lysed whole blood was stained with FITC-conjugated anti-Ly6G and PE-Cy7-conjugated anti-CD11b antibodies to determine the circulating neutrophil population. Ly6G+/CD11b+ cells were further stained with APC-conjugated anti-L-selectin and APC-conjugated anti-LFA-1 antibodies and were analyzed by flow cytometry to determine the expression of adhesion molecules.\nThe mice were intraperitoneally (i.p.) injected with 50 mg/kg gemcitabine to induce neutropenia. PLAG was diluted with phosphate-buffered saline (PBS) and then orally administrated at a dose of 50 or 250 mg/kg/day. The normal control group was administered PBS only during the experiment. At 15 h after gemcitabine treatment, the whole blood was collected from the orbital sinuses using capillary tubes (Kimble Chase Life Science and Research Products LLC, FL, USA) and collection tubes containing K3E-K3EDTA (Greiner Bio-One International, Kremsmünster, Austria). To obtain peritoneal cells, 5 ml of cold PBS was injected to the left side of the peritoneal wall using a 5 mL syringe, and the fluid was aspirated from the peritoneum. The collected cells were counted by complete blood count (CBC) analysis using Mindray BC-5300 auto-hematology analyzer (Shenzhen Mindray Biomedical Electronics, Guangdong Sheng, China).\nTo establish a 4T1 tumor-bearing mice model, the murine 4T1 mammary carcinoma cells (1×105) were subcutaneously injected on the right side of the abdomen. On the 10th day after tumor injection, the mice were intraperitoneally (i.p.) injected with 50 mg/kg gemcitabine, and the next day the whole blood was collected from the orbital sinuses as mentioned above before sacrificing the animals to obtain different organs of the body."}}}
{"smiles": "CCCCC/C=C\\C/C=C\\CCCCCCCC(=O)OC(COC(C)=O)COC(=O)CCCCCCCCCCCCCCC", "note": "(racemic) [PLAG, 1-palmitoyl-2-linoleoyl-3-acetylglycerol]", "values": [{"measurement": "bacterial clearance (live PAK CFU in BALF)", "setting": "[1]", "value": "significantly accelerates"}, {"measurement": "erythema on mouse foot and tail", "setting": "skin erythema injury", "value": "significantly weak or no erythema"}, {"measurement": "neutrophil counts in the peritoneum", "setting": "[2]; 15 hours after gemcitabine", "value": "effectively decreases"}, {"measurement": "gemcitabine-induced cell surface expression of L-selectin and LFA-1", "setting": "[2]; Gr-1+/CD11b+ cells", "value": "effectively inhibited"}, {"measurement": "circulating neutrophil counts", "setting": "[2]; PLAG 50 and 250 mg/kg oral, 15 hours after gemcitabine, dose-dependent", "value": "restored circulating neutrophils to an almost normal range"}, {"measurement": "population of Gr-1+ and CD11b+ neutrophils in the blood", "setting": "[2]; gemcitabine 50 mg/kg i.p.", "value": "maintained"}]}
